Laboratory results from patent US20070232577A1, “Synthetic pentacyclic triterpenoids and derivatives of betulinic acid and betulin” (Advanced Life Sciences, Inc., priority 2006, published 2007).
Values after ≈ are worked out from the molar mass of the structure shown.

How the values were obtained:
[1] = test system: LN-229 (glioblastoma); assay: MTS cell viability assay, LN-229; format: cell-based; conditions: Homo sapiens, 72 h
Experimental: (§1) All treatments were performed in triplicate. […] Cells were incubated at 37° C. for 72 h.

[2] = test system: A-375 (melanoma); assay: MTS cell viability assay, A-375; format: cell-based; conditions: Homo sapiens, 72 h
Experimental: as §1

[3] = test system: Daoy; assay: Caspase activation assay, Daoy; format: cell-based
Experimental: All treatments were performed in duplicate. […] Cells were incubated at 37° C. for 8 h. Caspase assay reagent (per 96-well plate) was prepared according to manufacturer's instructions (Homogeneous Caspases Assay, fluorometric, Roche) by combining 6.3 mL Incubation Buffer with 0.7 mL of Substrate Stock Solution. Caspase assay reagent (70 μL) was added to each well; the plate was gently shaken by hand for 15-20 seconds and incubated at 37° C. for 4 h.
Fluorescent emission was measured at 535 nm on a plate reader using the “homogeneous caspase” program (excitation Wavelength=490 nm, emission wavelength=535 nm). Duplicate wells for each treatment were averaged following background (no cells) subtraction (emission 535 nm value from all experimental emission 535 nm values) for each drug concentration.
DMSO treatment represented baseline caspase activation in the absence of drug. The percent changes in caspase activity were plotted on the y-axis for each drug treatment.

[4] = test system: Daoy (glioblastoma); assay: MTS cell viability assay, Daoy; conditions: for IC50: Homo sapiens, Daoy, 72 h, read-out: IC50 Daoy
Experimental: (§2) Cells were plated, the evening before treatment, for each treatment on 96-well plates (1×10^4 cells/well) in 100 μL volume per well. Drug solutions were prepared by diluting each test compound in DSMO (10 mM) with the appropriate cell growth media for each individual cell line, or in “Universal Media” if several cell lines were to be assayed in parallel, immediately prior to cell treatment. Universal Media consisted of 5 mL sodium pyruvate (100×liquid stock, CellGro), 5 mL glucose (100×, 45% liquid stock, CellGro), 5 mL Penicillin/Streptomycin (100×liquid stock, CellGro), 10 mL sodium bicarbonate (50×liquid stock, CellGro), 25 mL Fetal Calf Serum, 1.25 mL insulin (4 mg/mL, Gibco) and 449 mL RPMI media with 2 mM glutamine for a total volume of 500 mL. Cells were treated by aspirating media from each well and adding 80 μL of each drug solution to the attached cells. All treatments were performed in triplicate. Growth media (80 μL) were added to 3 blank wells (no cells) to measure background from the growth media Growth media alone (no DMSO or test compond) was added to 2 wells containing cells to measure the baseline MTS activity and vehicle (DMSO) control solutions were also included to monitor basal toxicity from DMSO. Cells were incubated at 37° C. for 72 h. MTS reagent (per 96-well plate) were prepared by combining 2 mL of MTS working solution (Cell Titer AQueous Non-Radioactive Cell Proliferation Assay, Promega, cat#G1112), 100 μL of 0.92 mg/mL phenazine methosulfate/Dulbecco's PBS and 2.1 mL growth media. MTS reagent (40 μL) were added to each well and incubated at 37° C. for 1.5 to 4 h. Plates were gently shaken by hand until solution in each well appeared homogenous. Absorbances at 490 nm were measured on a plate reader at multiple time points following the addition of MTS reagent for each plate. Triplicate absorbance (490 nm) measurements were averaged following background (no cell) subtraction for each drug concentration. Percent Cell Viability was calculated for each drug concentration using the following equation: {[Absorbances(drug treated)]/[Absorbances(DMSO treated)]}×100%
(§3) Percent viability (y-axis) was plotted against drug concentration (x-axis) and the resulting graph was used to determine the 50% inhibitory concentration (IC50) for each drug.

[5] = test system: OVCAR-3 (ovarian carcinoma); assay: MTS cell viability assay, OVCAR-3; format: cell-based; conditions: Homo sapiens, 72 h
Experimental: as §1

[6] = test system: HT-29 (colon carcinoma); assay: MTS cell viability assay, HT-29; format: cell-based; conditions: Homo sapiens, 72 h
Experimental: as §1

[7] = test system: MCF-7 (breast carcinoma); assay: MTS cell viability assay, MCF-7; format: cell-based; conditions: Homo sapiens, MCF7, 72 h
Experimental: as §1

[8] = test system: SK-MEL-2 (melanoma); assay: MTS cell viability assay, SK-MEL-2; conditions: Homo sapiens, SK-MEL-2, 72 h, read-out: IC50 SK-MEL-2
Experimental: as §2, §3

[9] = test system: SK-MEL-2 (melanoma)
Experimental: as §2, §3

[10] = test system: Daoy (glioblastoma)
Experimental: as §2, §3

[11] = test system: SK-MEL-2, A-375, Daoy, LN-229, OVCAR-3, HT-29, MCF-7 cell lines; format: cell-based
Experimental: as §1

`C=C(C)[C@@H]1CC[C@]2(COC(=O)CBr)CC[C@]3(C)[C@H](CC[C@@H]4[C@@]5(C)CC[C@H](O)C(C)(C)[C@@H]5CC[C@]43C)[C@@H]12` [Compound 13, ((1R,3aS,5aR,5bR,7aR,9S,11aR,11bR,13aR,13b R)-9-hydroxy-5a,5b,8,8,11a-pentamethyl-1-(prop-1-en-2-yl)icosahydro-1H-cyclopenta[a]chrysen-3a-yl)methyl 2-bromoacetate] was tested, and the IC50 [1] was 6 µg/mL (≈ 10.6 µM), the IC50 [2] was 29 µg/mL (≈ 51.4 µM) and the “caspase activation in Daoy” value ([3]; Daoy, percent change versus DMSO) was “approx. 200%”. The “selectivity of apoptosis activation, Daoy versus SK-MEL-2 (in words)” value ([3]; caspase assay, Daoy in preference to SK-MEL-2) was “selectively activate apoptosis in Daoy in preference to SK-MEL-2”, the IC50 [4] was 1.4 µg/mL (≈ 2.48 µM) and the “selectivity of cytotoxicity for Daoy (in words)” value ([4]; MTS assay, Daoy versus other cell lines) was “robust cytotoxic activity in Daoy but not in SK-MEL-2”. It also gave an IC50 [5] of 6 µg/mL (≈ 10.6 µM), an IC50 [6] of 10 µg/mL (≈ 17.7 µM) and an IC50 [7] of 45 µg/mL (≈ 79.8 µM). For the same compound, the IC50 [8] was 33 µg/mL (≈ 58.5 µM).
`C=C(C)[C@@H]1CC[C@]2(C(=O)O)CC[C@]3(C)[C@H](CC[C@@H]4[C@@]5(C)CC[C@H](OC(=O)/C=C/c6ccc(O)c(O)c6)C(C)(C)[C@@H]5CC[C@]43C)[C@@H]12` [Compound 25, (1R,3aS,5aR,5bR,7aR,9S,11aR,11bR,13aR, 13bR)-9-((E)-3-(3,4-dihydroxyphenyl)acryloyloxy)-5a,5b,8,8,11a-pentamethyl-1-(prop-1-en-2-yl)icosahydro-1H-cyclopenta[a]chrysene-3a-carboxylic acid] was tested, and the “improvement in cytotoxicity relative to betulinic acid 1 in SK-MEL-2” value [9] was “greater than 5 fold”.
In the case of `C=C(C)[C@@H]1CC[C@]2(CNCCO)CC[C@]3(C)[C@H](CC[C@@H]4[C@@]5(C)CC[C@H](O)C(C)(C)[C@@H]5CC[C@]43C)[C@@H]12` [Compound 69, (1R,3aS,5aR,5bR,7aR,9S,11aR,11bR,13aR,13bR)-3a-((2-hydroxyethylamino)methyl)-5a,5b,8,8,11a-pentamethyl-1-(prop-1-en-2-yl)icosahydro-1H-cyclopenta[a]chrysen-9-ol], the IC50 [2] is reported as 4 µg/mL (≈ 8.23 µM), the “improvement in cytotoxicity relative to betulinic acid 1 in Daoy” value [10] is reported as “greater than 5 fold” and the IC50 [4] is reported as under 2 µg/mL. The IC50 [5] was under 10 µg/mL, the IC50 [6] was 2 µg/mL (≈ 4.12 µM) and the “cytotoxic potency across the cell line panel (in words)” value [11] was “potent across the entire cell line panel”. The IC50 [7] was under 10 µg/mL, the “improvement in cytotoxicity relative to betulinic acid 1 in SK-MEL-2” value [9] was “greater than 5 fold” and the IC50 [8] was 5 µg/mL (≈ 10.3 µM).
In the case of `C=C(C)[C@@H]1CC[C@]2(CNCC(=O)OC)CC[C@]3(C)[C@H](CC[C@@H]4[C@@]5(C)CC[C@H](OC(C)=O)C(C)(C)[C@@H]5CC[C@]43C)[C@@H]12` [Compound 72, methyl 2-(((1R,3aS,5aR,5bR,7aR,9S,1iaR,11bR,13aR,13bR)-9-acetoxy-5a,5b,8,8,11a-pentamethyl-1-(prop-1-en-2-yl)icosahydro-1H-cyclopenta[a]chrysen-3a-yl)methylamino)acetate], the IC50 [1] is reported as over 75 µg/mL, the IC50 [2] is reported as 6 µg/mL (≈ 10.8 µM) and the “improvement in cytotoxicity relative to betulinic acid 1 in Daoy” value [10] is reported as “greater than 5 fold”. It also gave an IC50 [4] of 6 µg/mL (≈ 10.8 µM), an IC50 [5] of 36 µg/mL (≈ 64.8 µM) and an IC50 [6] of over 75 µg/mL. For the same compound, the IC50 [7] was 75 µg/mL (≈ 135 µM), the “improvement in cytotoxicity relative to betulinic acid 1 in SK-MEL-2” value [9] was “greater than 5 fold” and the IC50 [8] was 6 µg/mL (≈ 10.8 µM).
